l = locked nucleic acid (LNA); d = 2'-deoxy (DNA)
Assays:
Format in all cases: cell-based
cGAS [1] = target: cGAS (Mus musculus, UniProt Q8C6L5); experiment: ISD-driven IP-10 production in immortalised mouse BMDMs; set-up: endogenous in cells; host or cells: immortalised wild-type mouse bone marrow macrophages (iBMDMs); conditions: iBMDMs, 500 nM ASO
cGAS [2] = target: T1, cGAS (Homo sapiens, UniProt Q8N884); experiment: ISD70-driven IP-10 (and IFN-β) production in THP-1 cells, ELISA; set-up: endogenous in cells; host or cells: THP-1 (undifferentiated); conditions: THP-1; ~30 min pre-treatment, ISD70 overnight (FIG. 27); read-out: IC50 (IP-10 after ISD70 transfection), MOE and LNA ASOs
T1 sequence (Q8N884 whole entry): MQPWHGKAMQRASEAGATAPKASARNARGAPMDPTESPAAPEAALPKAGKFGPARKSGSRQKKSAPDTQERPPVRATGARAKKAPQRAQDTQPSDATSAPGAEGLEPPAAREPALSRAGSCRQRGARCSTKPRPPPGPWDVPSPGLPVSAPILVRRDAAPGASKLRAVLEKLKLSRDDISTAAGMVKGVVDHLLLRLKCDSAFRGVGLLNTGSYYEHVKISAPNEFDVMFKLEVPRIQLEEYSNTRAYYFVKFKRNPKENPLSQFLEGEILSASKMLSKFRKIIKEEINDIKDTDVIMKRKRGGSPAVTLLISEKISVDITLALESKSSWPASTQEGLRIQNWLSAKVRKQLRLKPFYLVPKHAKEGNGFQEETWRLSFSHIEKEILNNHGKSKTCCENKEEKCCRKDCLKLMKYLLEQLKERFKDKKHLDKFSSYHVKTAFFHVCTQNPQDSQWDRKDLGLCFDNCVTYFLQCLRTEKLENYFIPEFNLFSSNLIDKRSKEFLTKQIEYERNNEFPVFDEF

cGAS [3] = target: T1, cGAS; experiment: ISD70-driven IP-10 production in MG-63 cells; set-up: endogenous in cells
STING = target: T2, STING (Homo sapiens, UniProt Q86WV6); experiment: STING agonist (GSK, DMXAA)-driven IP-10 in MG-63 cells and immortalised mouse BMDMs; conditions: C2-Mut1 500 nM 6 h (GSK 100 nM, DMXAA 50 μg/ml); MOE/LNA ASOs 1 mM as printed (GSK, MG-63)
T2 construct: host or cells: MG-63 (human osteosarcoma)
T2 sequence (Q86WV6 whole entry): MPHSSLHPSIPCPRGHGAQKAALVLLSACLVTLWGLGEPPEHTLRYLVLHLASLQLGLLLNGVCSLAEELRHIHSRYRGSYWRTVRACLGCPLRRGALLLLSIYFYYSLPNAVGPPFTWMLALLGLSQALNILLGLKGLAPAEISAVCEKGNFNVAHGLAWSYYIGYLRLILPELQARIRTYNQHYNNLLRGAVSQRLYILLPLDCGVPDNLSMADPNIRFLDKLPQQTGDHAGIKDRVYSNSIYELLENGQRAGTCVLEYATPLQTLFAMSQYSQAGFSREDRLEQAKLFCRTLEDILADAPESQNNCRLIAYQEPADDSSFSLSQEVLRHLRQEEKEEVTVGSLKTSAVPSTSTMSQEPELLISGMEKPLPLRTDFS

TLR3 = target: T3, TLR3 (Homo sapiens, UniProt O15455); experiment: pIC-driven IP-10 in MG-63 cells; set-up: host or cells: MG-63 (human osteosarcoma); conditions: 1 mM ASO as printed, single preliminary experiment
T3 sequence (O15455 24-904): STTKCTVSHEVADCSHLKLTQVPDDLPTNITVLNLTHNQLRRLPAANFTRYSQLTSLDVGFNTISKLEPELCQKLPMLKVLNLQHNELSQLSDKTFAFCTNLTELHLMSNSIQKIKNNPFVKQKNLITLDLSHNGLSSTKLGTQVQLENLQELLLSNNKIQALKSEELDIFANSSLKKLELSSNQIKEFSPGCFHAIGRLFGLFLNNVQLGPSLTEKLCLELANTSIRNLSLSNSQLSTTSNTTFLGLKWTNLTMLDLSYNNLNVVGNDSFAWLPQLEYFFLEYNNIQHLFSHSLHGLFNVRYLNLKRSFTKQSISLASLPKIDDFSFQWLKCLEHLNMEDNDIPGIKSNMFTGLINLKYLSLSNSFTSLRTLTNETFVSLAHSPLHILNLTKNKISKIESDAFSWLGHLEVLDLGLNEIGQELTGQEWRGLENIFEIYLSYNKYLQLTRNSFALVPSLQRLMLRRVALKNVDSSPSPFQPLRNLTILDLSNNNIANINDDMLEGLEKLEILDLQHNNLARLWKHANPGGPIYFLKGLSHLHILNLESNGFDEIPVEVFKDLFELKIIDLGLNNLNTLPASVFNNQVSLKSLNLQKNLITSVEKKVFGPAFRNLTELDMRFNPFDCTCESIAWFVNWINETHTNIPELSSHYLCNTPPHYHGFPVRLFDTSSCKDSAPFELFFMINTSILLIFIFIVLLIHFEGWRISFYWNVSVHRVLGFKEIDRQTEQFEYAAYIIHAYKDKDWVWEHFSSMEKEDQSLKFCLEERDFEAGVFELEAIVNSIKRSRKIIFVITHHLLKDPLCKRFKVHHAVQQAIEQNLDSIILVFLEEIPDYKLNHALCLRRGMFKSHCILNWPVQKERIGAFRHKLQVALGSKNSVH
Description: FIG. 25: MG-63 were pre-treated for […] with […] indicated concentrations of ASOs (except for B3 and HPRT847Mut, used at 500 nM), prior to overnight transfection with ISD, stimulation with […] pIC or 100 nM GSK (Valentin et al., 2021). IP10 levels were measured and normalised to GSK only condition, after background correction. Data shown are from a single experiment in biological triplicate (+/−SEM).

Chain of cGAS (Mus musculus, UniProt Q8C6L5) (Q8C6L5 whole entry): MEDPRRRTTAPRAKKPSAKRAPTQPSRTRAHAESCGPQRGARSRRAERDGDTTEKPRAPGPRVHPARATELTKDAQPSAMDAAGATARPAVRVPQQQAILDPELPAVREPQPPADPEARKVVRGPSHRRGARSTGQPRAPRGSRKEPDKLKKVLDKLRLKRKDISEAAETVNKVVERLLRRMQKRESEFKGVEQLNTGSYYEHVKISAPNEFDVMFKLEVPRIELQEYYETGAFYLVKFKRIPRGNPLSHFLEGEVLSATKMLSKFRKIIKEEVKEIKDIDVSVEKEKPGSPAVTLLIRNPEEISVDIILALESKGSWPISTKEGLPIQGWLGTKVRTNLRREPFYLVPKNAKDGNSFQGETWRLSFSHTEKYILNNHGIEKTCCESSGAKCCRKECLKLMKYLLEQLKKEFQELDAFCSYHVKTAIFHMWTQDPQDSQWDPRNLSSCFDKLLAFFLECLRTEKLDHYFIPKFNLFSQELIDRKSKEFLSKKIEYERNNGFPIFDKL

Substance: +C*+G*+C*T*T*T*T*C*T*C*T*C*C*+G*+G*+T (CGCTTTTCTCTCCGGT; sugars from the 5' end l3 d10 l3, all phosphorothioate, methylation of C not given here) [A1-Mut]
- ISD-induced IP-10 in immortalised mouse BMDMs (in words) (cGAS [1]; ISD overnight): did not significantly potentiate IP-10 production
- IP-10 induced by the ASO transfected alone, no ISD (in words) (cGAS [1]; lipofectamine only (Mock)): induced low level IP-10
- IC50 (cGAS [2]): 75 nM
- IP-10 driven by ISD in MG-63, higher dose (in words) (cGAS [3]; 1 mM ASO as printed, single preliminary experiment (FIG. 25)): only reduced IP-10 driven by ISD
- IP-10 after ISD in MG-63, MOE and LNA ASOs (in words) (cGAS [3]; indicated concentrations up to 500 nM, ~30 min, ISD overnight (FIG. 24)): significantly reduced IP-10 levels
- IP-10 production driven by STING synthetic agonists (in words) (STING): not that driven by direct stimulation of STING
- IP-10 driven by TLR3 engagement with polyI:C in MG-63 (in words) (TLR3): only reduced IP-10 driven by ISD
